Reference: ChEMBL document CHEMBL1201862, “PubChem BioAssay data set” (2004)
Active and inactive are the calls of the source.

How the values were obtained:
[1] = biological target: Voltage-dependent T-type calcium channel subunit alpha-1H (Homo sapiens, UniProt O95180); format: functional;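 further: channel activity triggered by adding a high calcium stimulation buffer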
[2] = biological target: DNA dC->dU-editing enzyme APOBEC-3A (Homo sapiens, UniProt P31941); experiment: Dose Response confirmation of small molecule APOBEC3A DNA Deaminase Inhibitors via a fluorescence-based single-stranded DNA deaminase assay. [Related pubchem assays (depositor defined):AID493011, AID493024]; format: functional
[3] = biological target: DNA dC->dU-editing enzyme APOBEC-3G (Homo sapiens, UniProt Q9HC16); format: functional;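 further: Dose-response counterscreen measuring inhibition of APOBEC3G DNA deaminase activity, run while confirming APOBEC3A inhibitors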
[4] = biological target: T1, Acyl-homoserine lactone acylase PvdQ (Pseudomonas aeruginosa (strain LESB58), UniProt Q9I194); experiment: PvdQ acylase enzyme activity blockers – biochemical, fluorescence, plate reader and imaging, cherry-picks, dose response (AID 493231)
T1 sequence (Q9I194 whole entry): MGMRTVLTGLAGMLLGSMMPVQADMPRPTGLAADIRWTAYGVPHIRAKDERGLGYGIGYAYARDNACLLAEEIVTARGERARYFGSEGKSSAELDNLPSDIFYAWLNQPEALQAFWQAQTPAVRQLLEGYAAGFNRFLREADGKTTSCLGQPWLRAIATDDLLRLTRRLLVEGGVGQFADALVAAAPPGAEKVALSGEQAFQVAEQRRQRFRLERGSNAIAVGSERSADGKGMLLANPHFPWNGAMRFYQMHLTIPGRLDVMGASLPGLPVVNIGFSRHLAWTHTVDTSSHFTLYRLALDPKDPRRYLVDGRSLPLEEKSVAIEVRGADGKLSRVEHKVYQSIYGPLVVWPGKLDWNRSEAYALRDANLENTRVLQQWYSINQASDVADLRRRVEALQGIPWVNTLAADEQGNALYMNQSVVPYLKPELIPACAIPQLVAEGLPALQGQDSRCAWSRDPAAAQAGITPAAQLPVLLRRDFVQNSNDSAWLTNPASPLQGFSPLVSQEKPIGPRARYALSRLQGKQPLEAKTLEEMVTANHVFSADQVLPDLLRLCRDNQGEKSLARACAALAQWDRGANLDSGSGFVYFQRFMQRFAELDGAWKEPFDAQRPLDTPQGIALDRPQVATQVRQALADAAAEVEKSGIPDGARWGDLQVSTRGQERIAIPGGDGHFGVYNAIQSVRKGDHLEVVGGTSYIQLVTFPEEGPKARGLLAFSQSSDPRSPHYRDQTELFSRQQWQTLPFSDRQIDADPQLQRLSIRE

[5] = alpha-synuclein stem-loop luciferase translation blockers – H4 neuroglioma cells, luminescence, confirmation (AID 1988); format: functional, cell-based
HEK293 = experiment: EBV LMP1 TES2 canonical NF-kB signalling blockers – cell-based, HEK293, luciferase, cherry-pick, dose response (AID 588343); format: functional; details: Homo sapiens
[6] = HEK-293T cell viability reduction – luminescence, B-cell screen hits, cytotoxicity control for BCR NF-kB inhibitor project, dose response (AID 489021); format: functional, cell-based;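 further: HEK-293T cells carrying an NF-kB luciferase reporter; cells exposed to compound for about 14 hours before viability readout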
[7] = Luminescence Cell-Based Dose Response HTS to Identify Inhibitors of 5'UTR Stem-Loop Driven Prion Protein mRNA Translation in H4 Neuroglioblastoma Cells. [Related pubchem assays: 1827 (Project Summary), 1813 (Primary HTS)]; format: functional
[8] = luciferase reporter signal suppression in cells – H4 neuroglioma cells, luminescence, dose response (AID 1990); format: functional, cell-based
Protein RecA = biological target: T2, Protein RecA (Mycobacterium tuberculosis, UniProt P9WHJ3); experiment: Fluorescence Cell-Free Homogeneous Dose Retest to Identify Inhibitors of RecA-Intein Splicing Activity. [Related pubchem assays (depositor defined):AID2097, AID2223, AID489010, AID492950]; format: functional
T2 sequence (P9WHJ3 whole entry): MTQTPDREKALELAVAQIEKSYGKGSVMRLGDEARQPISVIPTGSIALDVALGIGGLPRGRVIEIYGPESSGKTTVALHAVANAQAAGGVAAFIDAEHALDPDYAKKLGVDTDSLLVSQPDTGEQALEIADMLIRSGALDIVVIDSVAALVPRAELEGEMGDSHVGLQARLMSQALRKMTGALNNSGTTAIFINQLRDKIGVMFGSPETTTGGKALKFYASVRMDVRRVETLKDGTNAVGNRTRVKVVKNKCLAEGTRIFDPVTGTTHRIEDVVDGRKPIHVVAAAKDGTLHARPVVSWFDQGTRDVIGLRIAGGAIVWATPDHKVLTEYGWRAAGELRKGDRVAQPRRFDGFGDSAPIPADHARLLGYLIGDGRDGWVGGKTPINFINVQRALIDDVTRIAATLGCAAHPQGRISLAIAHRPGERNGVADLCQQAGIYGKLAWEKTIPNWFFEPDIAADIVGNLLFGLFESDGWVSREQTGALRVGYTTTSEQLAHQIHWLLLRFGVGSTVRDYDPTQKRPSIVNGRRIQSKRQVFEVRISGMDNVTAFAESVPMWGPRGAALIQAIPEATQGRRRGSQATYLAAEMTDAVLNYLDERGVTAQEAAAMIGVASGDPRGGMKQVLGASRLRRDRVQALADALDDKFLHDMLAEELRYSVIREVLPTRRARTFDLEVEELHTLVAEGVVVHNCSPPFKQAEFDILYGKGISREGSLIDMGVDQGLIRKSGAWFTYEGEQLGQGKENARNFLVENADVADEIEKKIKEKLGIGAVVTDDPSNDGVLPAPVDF

[9] = biological target: T3, Replicative DNA helicase DnaB (Mycobacterium tuberculosis, UniProt P9WMR3); experiment: DnaB intein splicing inhibitors, dose response, biochemical, cell-free fluorescence (AID 449749); format: functional
T3 sequence (P9WMR3 whole entry): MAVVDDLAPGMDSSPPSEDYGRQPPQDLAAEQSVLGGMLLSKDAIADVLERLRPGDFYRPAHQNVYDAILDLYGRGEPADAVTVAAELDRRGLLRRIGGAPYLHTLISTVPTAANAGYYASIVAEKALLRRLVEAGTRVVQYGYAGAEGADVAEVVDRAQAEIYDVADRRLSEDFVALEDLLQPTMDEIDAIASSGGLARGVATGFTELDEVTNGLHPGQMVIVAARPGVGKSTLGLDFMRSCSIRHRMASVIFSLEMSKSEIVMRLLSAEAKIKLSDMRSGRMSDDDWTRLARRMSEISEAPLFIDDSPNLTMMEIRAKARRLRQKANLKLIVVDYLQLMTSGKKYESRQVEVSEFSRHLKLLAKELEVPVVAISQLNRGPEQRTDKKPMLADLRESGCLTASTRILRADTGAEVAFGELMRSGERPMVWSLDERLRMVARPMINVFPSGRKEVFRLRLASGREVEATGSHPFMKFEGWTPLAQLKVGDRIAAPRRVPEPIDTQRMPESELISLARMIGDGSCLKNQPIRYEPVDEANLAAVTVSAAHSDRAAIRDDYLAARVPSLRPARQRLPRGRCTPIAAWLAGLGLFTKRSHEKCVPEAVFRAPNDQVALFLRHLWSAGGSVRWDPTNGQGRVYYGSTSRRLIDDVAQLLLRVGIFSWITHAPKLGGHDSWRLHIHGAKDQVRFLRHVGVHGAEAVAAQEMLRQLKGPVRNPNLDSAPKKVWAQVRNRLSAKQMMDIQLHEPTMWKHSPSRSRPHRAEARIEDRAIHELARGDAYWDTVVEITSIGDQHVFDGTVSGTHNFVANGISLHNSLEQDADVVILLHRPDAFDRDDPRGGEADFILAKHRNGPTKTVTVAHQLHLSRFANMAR

cells [10] = format: functional, cell-based
cells [11] = format: functional, cell-based; remark: listed apart in the source
Cytochrome P450 3A4 = Cytochrome P450 3A4 (Homo sapiens, UniProt P08684); details: Potency;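 further: confirmatory qHTS run detecting inhibitors and substrates of CYP3A4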
[12] = DRD fibroblast viability loss – cell-based, non-viral oncogenic, luminescence, dose response (AID 1934); format: functional; details: Homo sapiens
BJ [13] = experiment: BJ-TERT fibroblast viability loss – cell-based, RAS-independent, luminescence, dose response (AID 1933); format: functional, Homo sapiens; details: Homo sapiens, BJ
BJ [14] = experiment: cells; format: functional, cell-based, Homo sapiens; details: Homo sapiens, BJ
BJ [15] = experiment: BJ-TERT-LT-ST fibroblast viability loss – cell-based, RAS-independent, luminescence, dose response (AID 1935); format: functional, Homo sapiens; details: Homo sapiens, BJ;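 further: BJ fibroblasts immortalized with TERT plus LT and ST oncogenes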
INS1 = experiment: INS-1E survival protection against cytokine death – cell-based, luminescence, retest, dose response (AID 449756); format: functional; details: Rattus norvegicus;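 further: cell death triggered by IL-1 beta plus TNF-alpha plus IFN-gamma mixture; protective hits raise ATP signal compared with cytokine alone wells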
[16] = fluconazole-exposed Candida albicans growth modulators – fluorescence, retest, confirmation (AID 2467); format: functional, cell-based
[17] = NIH-3T3 fibroblast cytotoxicity, dose response, cytotoxicity control, cell-based, fluorescence, Alamar Blue, secondary assay (AID 2327); format: functional;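 further: NIH-3T3 mouse fibroblasts cultured with fluconazole at 8 µg/mL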
Streptokinase A = biological target: T4, Streptokinase A (Streptococcus pyogenes serotype M1, UniProt P10520); experiment: viability-normalized secreted streptokinase activity reduction – plasminogen activation absorbance, OD405, dose response (AID 1914); format: functional, Streptococcus pyogenes M1 GAS;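 further: secreted streptokinase activity via plasminogen activation per viability signal from cell pellet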
T4 sequence (P10520 whole entry): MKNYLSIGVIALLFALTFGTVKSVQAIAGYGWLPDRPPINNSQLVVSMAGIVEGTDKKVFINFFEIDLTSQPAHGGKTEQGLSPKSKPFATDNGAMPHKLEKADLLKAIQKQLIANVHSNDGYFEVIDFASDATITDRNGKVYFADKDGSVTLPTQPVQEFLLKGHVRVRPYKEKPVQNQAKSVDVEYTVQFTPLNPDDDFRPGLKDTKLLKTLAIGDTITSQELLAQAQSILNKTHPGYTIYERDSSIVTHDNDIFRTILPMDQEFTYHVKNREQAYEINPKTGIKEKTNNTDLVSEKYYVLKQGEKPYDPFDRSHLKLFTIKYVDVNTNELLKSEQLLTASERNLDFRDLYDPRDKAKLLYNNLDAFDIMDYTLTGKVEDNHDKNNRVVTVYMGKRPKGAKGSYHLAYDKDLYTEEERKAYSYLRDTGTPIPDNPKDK

[18] = Luminescence Cell-Based Dose Retest to Confirm Inhibitors of Cancer Stem Cells. [Related pubchem assays (depositor defined):AID2717, AID2721]; format: functional; details: Homo sapiens
Streptococcus = experiment: GAS UMAA2166 growth inhibition – luminescence, BacTiterGlo, counter-screen for streptokinase expression inhibitor project, dose response (AID 1915); format: functional, organism-based;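 further: potency for reduction of bacterial viability or growth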
[19] = test system: Streptococcus sp. 'group A'; experiment: Streptococcus pyogenes SK(-)GAS viability under kanamycin – luminescence, BacTiterGlo, confirmation, counter-screen for streptokinase expression inhibitor project, dose response (AID 1900); format: functional, organism-based

Chain of DNA dC->dU-editing enzyme APOBEC-3G (Q9HC16 whole entry): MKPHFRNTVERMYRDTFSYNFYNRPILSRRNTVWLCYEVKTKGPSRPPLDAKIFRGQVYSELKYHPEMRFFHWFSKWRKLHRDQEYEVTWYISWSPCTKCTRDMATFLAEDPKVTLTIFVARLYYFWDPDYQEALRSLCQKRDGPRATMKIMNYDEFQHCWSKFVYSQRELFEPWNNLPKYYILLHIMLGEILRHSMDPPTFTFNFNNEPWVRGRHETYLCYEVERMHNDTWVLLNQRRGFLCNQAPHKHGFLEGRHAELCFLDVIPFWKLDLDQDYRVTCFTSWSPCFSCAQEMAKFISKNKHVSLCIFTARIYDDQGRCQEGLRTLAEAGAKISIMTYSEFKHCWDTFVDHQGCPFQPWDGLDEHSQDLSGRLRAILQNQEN
Chain of DNA dC->dU-editing enzyme APOBEC-3A (P31941 whole entry): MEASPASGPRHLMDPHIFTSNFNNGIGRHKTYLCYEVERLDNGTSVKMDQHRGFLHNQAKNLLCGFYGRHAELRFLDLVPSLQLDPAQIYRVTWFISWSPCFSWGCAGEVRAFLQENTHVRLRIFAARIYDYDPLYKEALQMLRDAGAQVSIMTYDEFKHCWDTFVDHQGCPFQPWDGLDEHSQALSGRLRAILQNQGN
Chain of Cytochrome P450 3A4 (P08684 whole entry): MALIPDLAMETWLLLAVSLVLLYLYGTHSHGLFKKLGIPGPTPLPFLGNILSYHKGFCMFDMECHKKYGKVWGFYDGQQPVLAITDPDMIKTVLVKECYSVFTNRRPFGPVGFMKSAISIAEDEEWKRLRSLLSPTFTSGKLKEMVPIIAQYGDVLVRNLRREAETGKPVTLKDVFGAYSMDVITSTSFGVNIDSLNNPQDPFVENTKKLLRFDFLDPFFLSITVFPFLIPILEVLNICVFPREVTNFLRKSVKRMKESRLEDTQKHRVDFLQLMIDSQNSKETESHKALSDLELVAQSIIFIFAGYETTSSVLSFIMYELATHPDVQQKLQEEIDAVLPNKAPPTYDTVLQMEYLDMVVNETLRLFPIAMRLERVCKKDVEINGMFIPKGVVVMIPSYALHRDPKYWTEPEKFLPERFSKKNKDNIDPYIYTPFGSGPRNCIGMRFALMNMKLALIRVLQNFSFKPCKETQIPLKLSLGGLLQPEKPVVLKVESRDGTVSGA
Chain of Voltage-dependent T-type calcium channel subunit alpha-1H (O95180 whole entry): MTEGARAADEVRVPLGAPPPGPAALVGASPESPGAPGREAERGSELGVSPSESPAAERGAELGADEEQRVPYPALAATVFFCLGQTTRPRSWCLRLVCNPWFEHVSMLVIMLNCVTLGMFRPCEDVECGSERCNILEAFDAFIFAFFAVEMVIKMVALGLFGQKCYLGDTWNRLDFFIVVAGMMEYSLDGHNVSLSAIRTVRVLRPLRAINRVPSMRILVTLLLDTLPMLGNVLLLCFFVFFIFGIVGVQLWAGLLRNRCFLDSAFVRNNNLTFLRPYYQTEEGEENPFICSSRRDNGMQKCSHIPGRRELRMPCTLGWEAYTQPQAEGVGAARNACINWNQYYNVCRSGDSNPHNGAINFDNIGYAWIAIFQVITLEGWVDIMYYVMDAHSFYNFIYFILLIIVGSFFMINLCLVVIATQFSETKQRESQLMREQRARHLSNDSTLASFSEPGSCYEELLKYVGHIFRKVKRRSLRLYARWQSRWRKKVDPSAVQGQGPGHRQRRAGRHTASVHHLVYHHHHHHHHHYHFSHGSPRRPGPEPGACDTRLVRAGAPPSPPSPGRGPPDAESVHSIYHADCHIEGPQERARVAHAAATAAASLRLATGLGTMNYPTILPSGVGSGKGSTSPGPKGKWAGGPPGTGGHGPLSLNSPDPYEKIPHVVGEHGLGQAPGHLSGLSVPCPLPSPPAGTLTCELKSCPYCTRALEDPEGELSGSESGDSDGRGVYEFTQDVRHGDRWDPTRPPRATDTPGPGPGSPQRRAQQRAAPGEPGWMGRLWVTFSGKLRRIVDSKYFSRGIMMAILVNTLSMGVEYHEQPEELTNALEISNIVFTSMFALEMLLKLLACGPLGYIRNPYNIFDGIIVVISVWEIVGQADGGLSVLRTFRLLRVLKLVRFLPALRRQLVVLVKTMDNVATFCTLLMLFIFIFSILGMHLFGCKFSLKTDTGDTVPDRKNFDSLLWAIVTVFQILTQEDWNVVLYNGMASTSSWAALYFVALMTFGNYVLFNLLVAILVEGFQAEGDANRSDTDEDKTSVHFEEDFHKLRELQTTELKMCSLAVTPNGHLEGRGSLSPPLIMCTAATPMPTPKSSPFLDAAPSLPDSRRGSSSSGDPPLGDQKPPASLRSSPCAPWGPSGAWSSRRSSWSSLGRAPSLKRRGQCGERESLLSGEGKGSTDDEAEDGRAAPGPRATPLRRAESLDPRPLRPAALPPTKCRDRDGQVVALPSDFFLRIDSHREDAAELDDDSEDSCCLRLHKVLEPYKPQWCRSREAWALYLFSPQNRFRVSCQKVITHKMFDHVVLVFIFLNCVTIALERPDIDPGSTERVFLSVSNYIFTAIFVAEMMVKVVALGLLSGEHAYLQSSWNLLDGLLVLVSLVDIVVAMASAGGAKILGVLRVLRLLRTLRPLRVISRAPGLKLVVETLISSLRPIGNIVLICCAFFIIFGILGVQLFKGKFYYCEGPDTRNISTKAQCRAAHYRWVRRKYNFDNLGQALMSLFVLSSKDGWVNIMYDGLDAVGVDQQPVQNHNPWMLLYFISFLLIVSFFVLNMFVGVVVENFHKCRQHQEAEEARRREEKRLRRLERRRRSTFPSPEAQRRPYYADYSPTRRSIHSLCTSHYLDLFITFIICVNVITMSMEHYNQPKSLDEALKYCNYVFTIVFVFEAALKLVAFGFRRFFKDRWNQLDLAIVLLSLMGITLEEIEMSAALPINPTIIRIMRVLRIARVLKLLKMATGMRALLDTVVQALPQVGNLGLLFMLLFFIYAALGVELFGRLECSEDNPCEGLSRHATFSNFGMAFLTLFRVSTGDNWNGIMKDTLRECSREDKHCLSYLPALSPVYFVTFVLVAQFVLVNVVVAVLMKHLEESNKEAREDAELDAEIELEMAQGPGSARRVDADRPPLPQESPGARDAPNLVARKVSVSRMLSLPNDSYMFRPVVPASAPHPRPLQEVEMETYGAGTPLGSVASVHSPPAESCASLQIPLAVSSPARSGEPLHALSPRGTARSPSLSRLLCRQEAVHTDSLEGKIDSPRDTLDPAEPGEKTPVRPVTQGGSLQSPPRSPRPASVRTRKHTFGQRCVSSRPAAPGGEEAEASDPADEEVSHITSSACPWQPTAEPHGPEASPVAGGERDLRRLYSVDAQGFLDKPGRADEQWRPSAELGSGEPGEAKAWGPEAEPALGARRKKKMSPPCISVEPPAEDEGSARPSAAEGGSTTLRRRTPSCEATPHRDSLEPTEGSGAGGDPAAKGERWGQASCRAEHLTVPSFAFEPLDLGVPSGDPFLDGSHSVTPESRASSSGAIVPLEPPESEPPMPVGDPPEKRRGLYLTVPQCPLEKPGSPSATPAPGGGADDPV

O=C(CN1CCN(c2ccccn2)CC1)N(c1ccccc1)c1ccc2ccccc2c1
EC50 [1]: 6.52 µM (active)

CC1=CC(C)C(C[N+]2(C)CCCCC2)C(C)C1 (stereo unspecified)
IC50 [2]: 6.16 µM (active)
IC50 [3]: 6.31 µM (active)

Brc1ccc(-c2nnc(-c3ccco3)o2)cc1
AC50 [4]: 46.2 µM (active)

O=C(CCCN1C(=O)/C(=C/c2ccccc2Cl)SC1=S)NNC(=O)c1ccccc1Cl
EC50 [5]: 7.8 µM (active)
AC50 (HEK293): 9.18 µM (active)
IC50 [6]: > 80 µM (inactive)
EC50 [7]: 10.5 µM (active)
EC50 [8]: 5.95 µM (active)

Cc1ccccc1NC(=O)c1ccc(CN2CCc3ccccc3C2)cc1
EC50 [1]: 2.28 µM (active)

Cc1nn(Cc2ccccc2)c(C)c1NC(=O)c1cc(-c2ccco2)on1
EC50 [1]: 9.33 µM (active)

CC(C)CC1CCCCC1OC(=O)C[N+]1(C)CCCCC1 (stereo unspecified)
IC50 [2]: 2.2 µM (active)
IC50 [3]: 2.29 µM (active)

CCCc1n[nH]c2c1C(c1ccoc1)C(C#N)=C(N)O2 (stereo unspecified)
EC50 (Protein RecA): 2.39 µM (active)
AC50 [9]: 4.51 µM (active)
EC50 (cells [10]): > 350 µM (not active)
EC50 (cells [11]): > 350 µM (not active)

CCN(CC)CCCCn1c(-c2ccccc2)nc2c(NC3CCCCC3)nc(C)nc21
AC50 (Cytochrome P450 3A4): 25.1 µM (inconclusive)

O=S1(=O)CCOC[C@H](c2ccccc2)N1Cc1cccc(Cl)c1
AC50 [4]: 12.7 µM (active)

O=C1C=C(c2cc(F)ccc2F)C[C@@H](c2ccc(F)cc2)C1
AC50 [4]: 9.05 µM (active)

Cc1ccccc1-n1c(SCc2c(C)noc2C)nnc1-c1c[nH]c2ccccc12
IC50 [6]: > 80 µM (inactive)

Cc1nc(N2CCOCC2)c2nc(-c3ccccc3)n(CCN3CCCC3)c2n1
AC50 (Cytochrome P450 3A4): 20 µM (inconclusive)

CCOCCCNc1nc2c(C)cccn2c(=O)c1/C=C1\SC(=S)N(C(C)CC)C1=O (stereo unspecified)
EC50 [12]: 38.5 µM (active)
IC50 [6]: > 80 µM (inactive)
EC50 (BJ [13]): > 150 µM (not active)
EC50 (BJ [14]): > 150 µM (not active)
EC50 (BJ [15]): > 150 µM (inconclusive)

C[n+]1ccccc1/C=C/c1ccc2ncccc2c1
IC50 [2]: 0.892 µM (active)
IC50 [3]: 1.92 µM (active)

Cc1ccc(/C=N/NC(=O)c2c(-c3ccccc3)noc2C)c(O)c1
AC50 (INS1): 2.33 µM (active)
EC50 [16]: 2.83 µM (active)
EC50 [17]: > 150 µM (inactive)
EC50 (cells [10]): 12.4 µM (active)
EC50 (cells [11]): > 350 µM (not active)

O/N=C(\c1ccc(Cl)cc1Cl)c1ncc(C(F)(F)F)cc1Cl
EC50 [1]: 2.11 µM (active)
EC50 (Streptokinase A): 35.2 µM (active)
AC50 [18]: 8.81 µM (active)
EC50 (Streptococcus): > 150 µM (not active)
EC50 [19]: 10.6 µM (active)

Nc1nc[nH]n1 [AMITROLE]
AC50 (Cytochrome P450 3A4): 15.8 µM (inconclusive)

COc1cc(O)c2c(=O)cc(C)oc2c1CC=C(C)C [HETEROPEUCENIN, METHYL ETHER]
AC50 (Cytochrome P450 3A4): 39.8 µM (inconclusive)
